Assay results published in the supplement of paper PMC10307832.

Experiments:
Test in all cases: relative viability (nuclei count vs DMSO), 5 days (fraction); higher = more cells survive
CX-5461 + Pemetrexed = compound: Cc1cnc(CNC(=O)c2c(=O)c3ccc(N4CCCN(C)CC4)nc3n3c2sc2ccccc23)cn1 [CX-5461] + Nc1nc2[nH]cc(CCc3ccc(C(=O)N[C@@H](CCC(=O)O)C(=O)O)cc3)c2c(=O)[nH]1 [Pemetrexed] (partner 0.2 µM)
How it was run: (§1)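 One day after seeding in 1536-well plates, lung cancer cell lines were dosed by pin tool. Dosing was either single-drug or a fixed anchor-drug dose plus five library-drug doses (not always all listed) in √10 steps. After 5 days, nuclei were stained in one fix-and-stain step and counted on 4× images, and relative viability is the nuclei count of treated wells over that of vehicle wells, given as the median of duplicate plates.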

IMD-0354 + Trametinib = compound: O=C(Nc1cc(C(F)(F)F)cc(C(F)(F)F)c1)c1cc(Cl)ccc1O [IMD-0354] + CC(=O)Nc1cccc(-n2c(=O)n(C3CC3)c(=O)c3c(Nc4ccc(I)cc4F)n(C)c(=O)c(C)c32)c1 [Trametinib] (partner 0.02 µM)
How it was run: as §1

IMD-0354 + Foretinib = compound: O=C(Nc1cc(C(F)(F)F)cc(C(F)(F)F)c1)c1cc(Cl)ccc1O [IMD-0354] + COc1cc2c(Oc3ccc(NC(=O)C4(C(=O)Nc5ccc(F)cc5)CC4)cc3F)ccnc2cc1OCCCN1CCOCC1 [Foretinib] (partner 0.25 µM)
How it was run: as §1

IMD-0354 + Pemetrexed = compound: O=C(Nc1cc(C(F)(F)F)cc(C(F)(F)F)c1)c1cc(Cl)ccc1O [IMD-0354] + Nc1nc2[nH]cc(CCc3ccc(C(=O)N[C@@H](CCC(=O)O)C(=O)O)cc3)c2c(=O)[nH]1 [Pemetrexed] (partner 0.2 µM)
How it was run: as §1

NCI-H1651
relative viability (CX-5461 + Pemetrexed; first compound 0.01 µM): 0.551 | relative viability (CX-5461 + Pemetrexed; first compound 0.03162 µM): 0.6 | relative viability (CX-5461 + Pemetrexed; first compound 0.1 µM): 0.546 | relative viability (CX-5461 + Pemetrexed; first compound 0.3162 µM): 0.623 | relative viability (CX-5461 + Pemetrexed; first compound 1 µM): 0.18 | relative viability (IMD-0354 + Trametinib; first compound 0.04 µM): 0.803 | relative viability (IMD-0354 + Trametinib; first compound 0.1265 µM): 0.729 | relative viability (IMD-0354 + Trametinib; first compound 0.4 µM): 0.729 | relative viability (IMD-0354 + Trametinib; first compound 1.265 µM): 0.877 | relative viability (IMD-0354 + Trametinib; first compound 4 µM): 0.238 | relative viability (IMD-0354 + Foretinib; first compound 0.04 µM): 0.816 | relative viability (IMD-0354 + Foretinib; first compound 0.1265 µM): 0.716 | relative viability (IMD-0354 + Foretinib; first compound 0.4 µM): 0.433 | relative viability (IMD-0354 + Foretinib; first compound 1.265 µM): 0.312 | relative viability (IMD-0354 + Foretinib; first compound 4 µM): 0.0982 | relative viability (IMD-0354 + Pemetrexed; first compound 0.04 µM): 0.653 | relative viability (IMD-0354 + Pemetrexed; first compound 0.1265 µM): 0.647 | relative viability (IMD-0354 + Pemetrexed; first compound 0.4 µM): 0.38 | relative viability (IMD-0354 + Pemetrexed; first compound 1.265 µM): 0.14 | relative viability (IMD-0354 + Pemetrexed; first compound 4 µM): 0.116

NCI-H441
relative viability (CX-5461 + Pemetrexed; first compound 0.01 µM): 0.261 | relative viability (CX-5461 + Pemetrexed; first compound 0.03162 µM): 0.268 | relative viability (CX-5461 + Pemetrexed; first compound 0.1 µM): 0.241 | relative viability (CX-5461 + Pemetrexed; first compound 0.3162 µM): 0.242 | relative viability (CX-5461 + Pemetrexed; first compound 1 µM): 0.226 | relative viability (IMD-0354 + Trametinib; first compound 0.04 µM): 0.528 | relative viability (IMD-0354 + Trametinib; first compound 0.1265 µM): 0.543 | relative viability (IMD-0354 + Trametinib; first compound 0.4 µM): 0.359 | relative viability (IMD-0354 + Trametinib; first compound 1.265 µM): 0.164 | relative viability (IMD-0354 + Trametinib; first compound 4 µM): 0.191 | relative viability (IMD-0354 + Foretinib; first compound 0.04 µM): 0.919 | relative viability (IMD-0354 + Foretinib; first compound 0.1265 µM): 0.872 | relative viability (IMD-0354 + Foretinib; first compound 0.4 µM): 0.478 | relative viability (IMD-0354 + Foretinib; first compound 1.265 µM): 0.28 | relative viability (IMD-0354 + Foretinib; first compound 4 µM): 0.272 | relative viability (IMD-0354 + Pemetrexed; first compound 0.04 µM): 0.255 | relative viability (IMD-0354 + Pemetrexed; first compound 0.1265 µM): 0.251 | relative viability (IMD-0354 + Pemetrexed; first compound 0.4 µM): 0.289 | relative viability (IMD-0354 + Pemetrexed; first compound 1.265 µM): 0.177 | relative viability (IMD-0354 + Pemetrexed; first compound 4 µM): 0.147

LCLC-103H
relative viability (CX-5461 + Pemetrexed; first compound 0.01 µM): 0.426 | relative viability (CX-5461 + Pemetrexed; first compound 0.03162 µM): 0.482 | relative viability (CX-5461 + Pemetrexed; first compound 0.1 µM): 0.46 | relative viability (CX-5461 + Pemetrexed; first compound 0.3162 µM): 0.401 | relative viability (CX-5461 + Pemetrexed; first compound 1 µM): 0.4 | relative viability (IMD-0354 + Trametinib; first compound 0.04 µM): 0.703 | relative viability (IMD-0354 + Trametinib; first compound 0.1265 µM): 0.703 | relative viability (IMD-0354 + Trametinib; first compound 0.4 µM): 0.521 | relative viability (IMD-0354 + Trametinib; first compound 1.265 µM): 0.602 | relative viability (IMD-0354 + Trametinib; first compound 4 µM): 0.315 | relative viability (IMD-0354 + Foretinib; first compound 0.04 µM): 0.745 | relative viability (IMD-0354 + Foretinib; first compound 0.1265 µM): 0.865 | relative viability (IMD-0354 + Foretinib; first compound 0.4 µM): 0.45 | relative viability (IMD-0354 + Foretinib; first compound 1.265 µM): 0.335 | relative viability (IMD-0354 + Foretinib; first compound 4 µM): 0.216 | relative viability (IMD-0354 + Pemetrexed; first compound 0.04 µM): 0.518 | relative viability (IMD-0354 + Pemetrexed; first compound 0.1265 µM): 0.491 | relative viability (IMD-0354 + Pemetrexed; first compound 0.4 µM): 0.446 | relative viability (IMD-0354 + Pemetrexed; first compound 1.265 µM): 0.317 | relative viability (IMD-0354 + Pemetrexed; first compound 4 µM): 0.266

LCLC-97TM1
relative viability (CX-5461 + Pemetrexed; first compound 0.01 µM): 0.178 | relative viability (CX-5461 + Pemetrexed; first compound 0.03162 µM): 0.193 | relative viability (CX-5461 + Pemetrexed; first compound 0.1 µM): 0.196 | relative viability (CX-5461 + Pemetrexed; first compound 0.3162 µM): 0.103 | relative viability (CX-5461 + Pemetrexed; first compound 1 µM): 0.155 | relative viability (IMD-0354 + Trametinib; first compound 0.04 µM): 0.186 | relative viability (IMD-0354 + Trametinib; first compound 0.1265 µM): 0.178 | relative viability (IMD-0354 + Trametinib; first compound 0.4 µM): 0.141 | relative viability (IMD-0354 + Trametinib; first compound 1.265 µM): 0.214 | relative viability (IMD-0354 + Trametinib; first compound 4 µM): 0.113 | relative viability (IMD-0354 + Foretinib; first compound 0.04 µM): 0.929 | relative viability (IMD-0354 + Foretinib; first compound 0.1265 µM): 0.824 | relative viability (IMD-0354 + Foretinib; first compound 0.4 µM): 0.673 | relative viability (IMD-0354 + Foretinib; first compound 1.265 µM): 0.34 | relative viability (IMD-0354 + Foretinib; first compound 4 µM): 0.164 | relative viability (IMD-0354 + Pemetrexed; first compound 0.04 µM): 0.202 | relative viability (IMD-0354 + Pemetrexed; first compound 0.1265 µM): 0.162 | relative viability (IMD-0354 + Pemetrexed; first compound 0.4 µM): 0.102 | relative viability (IMD-0354 + Pemetrexed; first compound 1.265 µM): 0.0974 | relative viability (IMD-0354 + Pemetrexed; first compound 4 µM): 0.0756

NCI-H1355
relative viability (CX-5461 + Pemetrexed; first compound 0.01 µM): 1.08 | relative viability (CX-5461 + Pemetrexed; first compound 0.03162 µM): 1.08 | relative viability (CX-5461 + Pemetrexed; first compound 0.1 µM): 1.03 | relative viability (CX-5461 + Pemetrexed; first compound 0.3162 µM): 1.02 | relative viability (CX-5461 + Pemetrexed; first compound 1 µM): 0.853 | relative viability (IMD-0354 + Trametinib; first compound 0.04 µM): 0.446 | relative viability (IMD-0354 + Trametinib; first compound 0.1265 µM): 0.398 | relative viability (IMD-0354 + Trametinib; first compound 0.4 µM): 0.402 | relative viability (IMD-0354 + Trametinib; first compound 1.265 µM): 0.331 | relative viability (IMD-0354 + Trametinib; first compound 4 µM): 0.244 | relative viability (IMD-0354 + Foretinib; first compound 0.04 µM): 1.11 | relative viability (IMD-0354 + Foretinib; first compound 0.1265 µM): 0.943 | relative viability (IMD-0354 + Foretinib; first compound 0.4 µM): 0.646 | relative viability (IMD-0354 + Foretinib; first compound 1.265 µM): 0.908 | relative viability (IMD-0354 + Foretinib; first compound 4 µM): 0.298 | relative viability (IMD-0354 + Pemetrexed; first compound 0.04 µM): 1.07 | relative viability (IMD-0354 + Pemetrexed; first compound 0.1265 µM): 1.1 | relative viability (IMD-0354 + Pemetrexed; first compound 0.4 µM): 0.673 | relative viability (IMD-0354 + Pemetrexed; first compound 1.265 µM): 0.527 | relative viability (IMD-0354 + Pemetrexed; first compound 4 µM): 0.216

HOP-62
relative viability (CX-5461 + Pemetrexed; first compound 0.01 µM): 0.236 | relative viability (CX-5461 + Pemetrexed; first compound 0.03162 µM): 0.384 | relative viability (CX-5461 + Pemetrexed; first compound 0.1 µM): 0.297 | relative viability (CX-5461 + Pemetrexed; first compound 0.3162 µM): 0.28 | relative viability (CX-5461 + Pemetrexed; first compound 1 µM): 0.321 | relative viability (IMD-0354 + Trametinib; first compound 0.04 µM): 0.405 | relative viability (IMD-0354 + Trametinib; first compound 0.1265 µM): 0.394 | relative viability (IMD-0354 + Trametinib; first compound 0.4 µM): 0.403 | relative viability (IMD-0354 + Trametinib; first compound 1.265 µM): 0.42 | relative viability (IMD-0354 + Trametinib; first compound 4 µM): 0.17 | relative viability (IMD-0354 + Foretinib; first compound 0.04 µM): 1.13 | relative viability (IMD-0354 + Foretinib; first compound 0.1265 µM): 1.03 | relative viability (IMD-0354 + Foretinib; first compound 0.4 µM): 0.42 | relative viability (IMD-0354 + Foretinib; first compound 1.265 µM): 0.449 | relative viability (IMD-0354 + Foretinib; first compound 4 µM): 0.118 | relative viability (IMD-0354 + Pemetrexed; first compound 0.04 µM): 0.348 | relative viability (IMD-0354 + Pemetrexed; first compound 0.1265 µM): 0.308 | relative viability (IMD-0354 + Pemetrexed; first compound 0.4 µM): 0.268 | relative viability (IMD-0354 + Pemetrexed; first compound 1.265 µM): 0.141 | relative viability (IMD-0354 + Pemetrexed; first compound 4 µM): 0.0739

NCI-H2085
relative viability (CX-5461 + Pemetrexed; first compound 0.01 µM): 1.03 | relative viability (CX-5461 + Pemetrexed; first compound 0.03162 µM): 0.907 | relative viability (CX-5461 + Pemetrexed; first compound 0.1 µM): 0.88 | relative viability (CX-5461 + Pemetrexed; first compound 0.3162 µM): 0.989 | relative viability (CX-5461 + Pemetrexed; first compound 1 µM): 0.799 | relative viability (IMD-0354 + Trametinib; first compound 0.04 µM): 0.559 | relative viability (IMD-0354 + Trametinib; first compound 0.1265 µM): 0.477 | relative viability (IMD-0354 + Trametinib; first compound 0.4 µM): 0.471 | relative viability (IMD-0354 + Trametinib; first compound 1.265 µM): 0.25 | relative viability (IMD-0354 + Trametinib; first compound 4 µM): 0.27 | relative viability (IMD-0354 + Foretinib; first compound 0.04 µM): 0.97 | relative viability (IMD-0354 + Foretinib; first compound 0.1265 µM): 0.922 | relative viability (IMD-0354 + Foretinib; first compound 0.4 µM): 0.791 | relative viability (IMD-0354 + Foretinib; first compound 1.265 µM): 0.538 | relative viability (IMD-0354 + Foretinib; first compound 4 µM): 0.225 | relative viability (IMD-0354 + Pemetrexed; first compound 0.04 µM): 0.954 | relative viability (IMD-0354 + Pemetrexed; first compound 0.1265 µM): 0.846 | relative viability (IMD-0354 + Pemetrexed; first compound 0.4 µM): 0.644 | relative viability (IMD-0354 + Pemetrexed; first compound 1.265 µM): 0.294 | relative viability (IMD-0354 + Pemetrexed; first compound 4 µM): 0.276
